Results from PubChem BioAssay (NCI).
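Five concentrations, 48 hours, 96-well plates. The concentration for 50% growth inhibition is given as GI50. TGI marks complete inhibition of growth.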

What was measured:
Test in all cases: DTP human tumour cell line panel, 48 h
SR leukemia = tested on: SR leukemia
U251 CNS = tested on: U251 CNS
SK-MEL-5 melanoma = tested on: SK-MEL-5 melanoma
SK-OV-3 ovarian = tested on: SK-OV-3 ovarian
MOLT-4 leukemia = tested on: MOLT-4 leukemia
OVCAR-4 ovarian = tested on: OVCAR-4 ovarian
MDA-MB-435 = tested on: MDA-MB-435
SK-MEL-2 melanoma = tested on: SK-MEL-2 melanoma
CCRF-CEM leukemia = tested on: CCRF-CEM leukemia
SK-MEL-28 melanoma = tested on: SK-MEL-28 melanoma
EKVX NSCLC = tested on: EKVX NSCLC
SNB-19 CNS = tested on: SNB-19 CNS
RPMI-8226 leukemia = tested on: RPMI-8226 leukemia
RXF 393 renal = tested on: RXF 393 renal
UACC-62 melanoma = tested on: UACC-62 melanoma
HOP-62 NSCLC = tested on: HOP-62 NSCLC
DU-145 prostate = tested on: DU-145 prostate
SN12C renal = tested on: SN12C renal
A498 renal = tested on: A498 renal
MALME-3M melanoma = tested on: MALME-3M melanoma
COLO 205 colon = tested on: COLO 205 colon
UO-31 renal = tested on: UO-31 renal
SF-295 CNS = tested on: SF-295 CNS
HL-60(TB) leukemia = tested on: HL-60(TB) leukemia
HCT-15 colon = tested on: HCT-15 colon
HT29 colon = tested on: HT29 colon
SNB-75 CNS = tested on: SNB-75 CNS
OVCAR-5 ovarian = tested on: OVCAR-5 ovarian
IGROV1 ovarian = tested on: IGROV1 ovarian

CCCCC[C@H]1C/C=C2/C(=O)C(Cl)=C[C@@H]2C/C=C\CCCC(=O)O1
TGI (SR leukemia): 2680 nM
GI50 (U251 CNS): 330 nM
TGI (U251 CNS): 737 nM
GI50 (SK-MEL-5 melanoma): 437 nM
TGI (SK-MEL-5 melanoma): 812 nM
GI50 (SK-OV-3 ovarian): 907 nM
TGI (SK-OV-3 ovarian): 2680 nM
GI50 (MOLT-4 leukemia): 117 nM
TGI (MOLT-4 leukemia): 2980 nM
GI50 (OVCAR-4 ovarian): 735 nM
TGI (OVCAR-4 ovarian): 3830 nM
GI50 (MDA-MB-435): 337 nM
TGI (MDA-MB-435): 1110 nM
GI50 (SK-MEL-2 melanoma): 439 nM
TGI (SK-MEL-2 melanoma): 1130 nM
GI50 (CCRF-CEM leukemia): 113 nM
TGI (CCRF-CEM leukemia): 2930 nM
GI50 (SK-MEL-28 melanoma): 472 nM
TGI (SK-MEL-28 melanoma): 1120 nM
GI50 (EKVX NSCLC): 560 nM
TGI (EKVX NSCLC): 1370 nM
GI50 (SNB-19 CNS): 590 nM
TGI (SNB-19 CNS): 2680 nM
GI50 (RPMI-8226 leukemia): 171 nM
TGI (RPMI-8226 leukemia): 1520 nM
GI50 (RXF 393 renal): 457 nM
TGI (RXF 393 renal): 868 nM
GI50 (UACC-62 melanoma): 411 nM
TGI (UACC-62 melanoma): 1000 nM
GI50 (HOP-62 NSCLC): 530 nM
TGI (HOP-62 NSCLC): 1150 nM
GI50 (DU-145 prostate): 638 nM
TGI (DU-145 prostate): 2510 nM
GI50 (SN12C renal): 333 nM
TGI (SN12C renal): 905 nM
GI50 (A498 renal): 546 nM
TGI (A498 renal): 1460 nM
GI50 (MALME-3M melanoma): 573 nM
TGI (MALME-3M melanoma): 1530 nM
GI50 (COLO 205 colon): 438 nM
TGI (COLO 205 colon): 975 nM
GI50 (UO-31 renal): 379 nM
TGI (UO-31 renal): 717 nM
GI50 (SF-295 CNS): 563 nM
TGI (SF-295 CNS): 1530 nM
GI50 (HL-60(TB) leukemia): 565 nM
TGI (HL-60(TB) leukemia): 2720 nM
GI50 (HCT-15 colon): 284 nM
TGI (HCT-15 colon): 895 nM
GI50 (HT29 colon): 461 nM
TGI (HT29 colon): 2260 nM
GI50 (SNB-75 CNS): 1760 nM
TGI (SNB-75 CNS): 6090 nM
GI50 (OVCAR-5 ovarian): 649 nM
TGI (OVCAR-5 ovarian): 1400 nM
GI50 (IGROV1 ovarian): 444 nM
TGI (IGROV1 ovarian): 1240 nM
